# Laboratory results from US7198803B2, “Sustained release oral preparations” (Nippon Shinyaku Co., Ltd., priority 2000, dated 2007).
# Tests used:
# [1] = plasma half life of the drug; conditions: in vivo
# [2] = tested on: calcium-sensitive potassium channel; conditions: known from PCT WO99/36068; cited from earlier work
compound,measurement,setting,value
Cc1c(-c2ccccc2F)[nH]c(N)c1C#N [2-amino-3-cyano-5-(2-fluorophenyl)-4-methylpyrrole],plasma half life,[1],short plasma half life
same,potassium channel activating effect,[2],bladder-selective calcium-sensitive potassium channel activating effect
